This note sets out measurements from ChEMBL document CHEMBL1201862, “PubChem BioAssay data set” (2004).

Test systems include MCF7; SF-268; SK-MEL-2; HCT-15; HCC 2998; K562; U-251; RXF 393; SNB-19; OVCAR-3; PC-3; IGROV-1; TK-10; ACHN; SF-295; HOP-62.
Experiment in all cases: NCI tumour cell line growth inhibition, 48 h

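These data come from cells grown in 96-well plates and exposed to compound for 48 hours at five concentrations. Abbreviation: GI50, concentration required for 50% inhibition of growth.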 Activity calls are given as the source filed them. Cut-off read from the data, not from the text of the source: active = GI50 up to about 1.1 µM and inactive = higher. Residues, ends and D or L forms follow the SMILES beside them. *: point of attachment. Boc = CC(C)(C)OC(=O)*

Consider `CO[C@H]1c2cccc3cccc(c23)[C@@H]1n1[nH]c(=O)n(C(C)(C)C)c1=O`, for which the GI50 with MCF7 was > 100 µM (inactive); in the experiment on SF-268 it was > 100 µM (inactive); with SK-MEL-2 it was > 100 µM (inactive); in the experiment on HCT-15 it was above 100 µM; with HCC 2998, > 100 µM (inactive); in the experiment on K562 it was > 100 µM (inactive). Besides, the GI50 in the experiment with U-251, in the experiment with RXF 393, in the experiment with SNB-19, in the experiment on OVCAR-3, in the experiment on PC-3 and in the experiment on IGROV-1 was > 100 µM (inactive) throughout. The GI50 with TK-10 is > 100 µM (inactive).

As to `Nc1nc(Cl)cc(NCC2(CO)CC(c3ccccc3)C2)n1` (stereo unspecified), the GI50 in the experiment on MCF7 was 22.9 µM (inactive); with SF-268, 94.4 µM (inactive); with SK-MEL-2 it was 62.4 µM (inactive); in the experiment with HCT-15, 53 µM; with K562 it was 9.57 µM (inactive); in the experiment on U-251, 50.7 µM (inactive). Also, the GI50 in the experiment on RXF 393 is 58.9 µM (inactive); in the experiment on ACHN, 16.1 µM (inactive); in the experiment on SNB-19 it was 88.7 µM (inactive); in the experiment on OVCAR-3, > 100 µM (inactive); in the experiment on SF-295, > 100 µM (inactive); in the experiment on HOP-62, > 100 µM (inactive). The GI50 in the experiment with PC-3 is 18 µM (inactive); with IGROV-1, > 100 µM (inactive); in the experiment on TK-10, 95.1 µM (inactive).

Regarding `CN(C)CN1C(=O)/C(=N\n2c(S)nnc2-c2ccncc2)c2ccccc21`, the GI50 was 31.3 µM (inactive) in the experiment with MCF7; 57.5 µM (inactive) in the experiment with SF-268; 21.4 µM (inactive) in the experiment with SK-MEL-2; 28.1 µM in the experiment with HCT-15; 26.5 µM (inactive) in the experiment with K562; 38.8 µM (inactive) in the experiment with U-251. In addition, the GI50 in the experiment with RXF 393 is 17 µM (inactive); in the experiment on ACHN it was 48.1 µM (inactive); with SNB-19, 54.5 µM (inactive); in the experiment on OVCAR-3, 66.5 µM (inactive); with SF-295 it was > 100 µM (inactive); in the experiment with HOP-62, 24.8 µM (inactive). For the same compound, the GI50 in the experiment with PC-3 was 35.6 µM (inactive); with IGROV-1, 38.5 µM (inactive); in the experiment on TK-10, 41.9 µM (inactive).

In the case of `O=C1c2ccccc2C(=O)c2c1sc1nc3ccccc3n21`, the GI50 with MCF7 is 1.86 µM (inactive); with SF-268, 1.89 µM (inactive); with HCT-15, 1.36 µM; in the experiment on HCC 2998, 1.73 µM (inactive); in the experiment with K562, 2.03 µM (inactive); in the experiment with U-251, 3.52 µM (inactive). Besides, the GI50 was 1.79 µM (inactive) in the experiment on RXF 393; 2.23 µM (inactive) with ACHN; 2.11 µM (inactive) in the experiment on SNB-19; 2.86 µM (inactive) in the experiment with OVCAR-3; 1.66 µM (inactive) in the experiment with SF-295; 2.64 µM (inactive) in the experiment with PC-3. In addition, the GI50 in the experiment with IGROV-1 was 2.44 µM (inactive); in the experiment on TK-10 it was 4.19 µM (inactive).

As to `COc1ccc(C(=O)/C=C/S/C(=N/C#N)SC)cc1`, the GI50 in the experiment with MCF7 was 18.4 µM (inactive); in the experiment with SF-268, 25.8 µM (inactive); in the experiment on SK-MEL-2 it was 20.5 µM (inactive); in the experiment with HCT-15, 13.8 µM; in the experiment on K562, 10.7 µM (inactive); in the experiment on U-251, 16.9 µM (inactive). In addition, the GI50 is 18.2 µM (inactive) in the experiment on RXF 393; 20.4 µM (inactive) with ACHN; 19.5 µM (inactive) in the experiment on SNB-19; 16.4 µM (inactive) with OVCAR-3; 28 µM (inactive) in the experiment with SF-295; 24.3 µM (inactive) in the experiment on HOP-62. Further, the GI50 in the experiment on PC-3 was 33.8 µM (inactive); in the experiment with IGROV-1, 21.8 µM (inactive); in the experiment with TK-10, 20.8 µM (inactive).

Consider `COc1cc(OC)nc(-n2c(N)c(C(=O)O)c3ccc([N+](=O)[O-])cc3c2=O)n1`, for which the GI50 is > 100 µM (inactive) in the experiment on MCF7; > 100 µM (inactive) with SF-268; > 100 µM (inactive) with SK-MEL-2; above 100 µM in the experiment with HCT-15; > 100 µM (inactive) in the experiment on HCC 2998; > 100 µM (inactive) in the experiment on K562. The GI50 with U-251, in the experiment on RXF 393, in the experiment on ACHN, with SNB-19, in the experiment with OVCAR-3 and with SF-295 was > 100 µM (inactive) each time. For the same compound, the GI50 is > 100 µM (inactive) with HOP-62, > 100 µM (inactive) with PC-3 and 67.8 µM (inactive) in the experiment on IGROV-1.

`O=C(Nc1ccn(C2CC(O)C(COC(c3ccccc3)(c3ccccc3)c3ccccc3)O2)c(=O)n1)c1ccccc1` (stereo unspecified): the GI50 in the experiment on MCF7 is 2.43 µM (inactive); in the experiment with SF-268, 5.06 µM (inactive); in the experiment with SK-MEL-2, 2.82 µM (inactive); in the experiment with HCT-15 it was 2.59 µM; in the experiment with HCC 2998 it was 7.36 µM (inactive); with K562, 2.92 µM (inactive). Further, the GI50 is 3.5 µM (inactive) in the experiment on U-251; 2.7 µM (inactive) in the experiment with RXF 393; 3.35 µM (inactive) with ACHN; 3.77 µM (inactive) in the experiment on SNB-19; 2.03 µM (inactive) in the experiment with OVCAR-3; 1.96 µM (inactive) with SF-295. Besides, the GI50 in the experiment on HOP-62 is 5.62 µM (inactive); in the experiment with PC-3 it was 2.43 µM (inactive); with IGROV-1 it was 2.9 µM (inactive).

For `Cc1ccc2nc(NC(=O)/C(Cc3nc4ccc(Cl)cc4nc3O)=N\NC(C)(C)C)sc2c1`, the GI50 with MCF7 was > 100 µM (inactive); with SF-268, 97.9 µM (inactive); in the experiment on SK-MEL-2, > 100 µM (inactive); in the experiment on HCT-15, 90.6 µM; with HCC 2998, > 100 µM (inactive); in the experiment on K562, > 100 µM (inactive). The GI50 in the experiment with U-251 is > 100 µM (inactive); in the experiment with RXF 393 it was > 100 µM (inactive); in the experiment with ACHN it was > 100 µM (inactive); in the experiment on SNB-19 it was > 100 µM (inactive); with OVCAR-3 it was > 100 µM (inactive); with SF-295, 36.1 µM (inactive). For the same compound, the GI50 with PC-3 is > 100 µM (inactive).

For the compound `Cc1c(N2C(=O)/C(=C/c3ccc(Cl)cc3)N=C2c2ccccc2)c(=O)n(-c2ccccc2)n1C`, the GI50 with MCF7 was 29 µM (inactive); in the experiment with SF-268, 30.8 µM (inactive); in the experiment on SK-MEL-2 it was 16.7 µM (inactive); in the experiment on HCT-15 it was 3.2 µM; with K562, 36.6 µM (inactive); in the experiment on U-251 it was 28.2 µM (inactive). In addition, the GI50 in the experiment on RXF 393 is 22.3 µM (inactive); with ACHN, 24.8 µM (inactive); in the experiment on OVCAR-3 it was 27.1 µM (inactive); in the experiment with SF-295 it was 35.7 µM (inactive); in the experiment on HOP-62 it was 81.5 µM (inactive); in the experiment with PC-3, 33.9 µM (inactive). The GI50 in the experiment on IGROV-1 is 29 µM (inactive); with TK-10, 20.5 µM (inactive).

`O=C(NNC(=O)c1ccccc1O)c1ccc(O)cc1`: the GI50 in the experiment on MCF7 is 58.9 µM (inactive); with SF-268, 9.95 µM (inactive); in the experiment on SK-MEL-2, 22.5 µM (inactive); in the experiment on HCT-15 it was 19.2 µM; with K562, 84.9 µM (inactive); with U-251 it was > 100 µM (inactive). Moreover, the GI50 was > 100 µM (inactive) in the experiment on RXF 393; > 100 µM (inactive) in the experiment with SNB-19; 38.4 µM (inactive) with OVCAR-3; 33 µM (inactive) in the experiment on SF-295; 47.5 µM (inactive) in the experiment with HOP-62; 37.6 µM (inactive) in the experiment with PC-3. Further, the GI50 in the experiment with IGROV-1 was 23.9 µM (inactive); with TK-10, > 100 µM (inactive).

For the compound `CCCCCCCCCCCCOCCOCCOCCOCCOCCOCC(=O)NC(Cc1ccccc1)C(=O)Oc1ccc([N+](=O)[O-])cc1` (stereo unspecified), the GI50 is 38.1 µM (inactive) in the experiment with MCF7; 50.9 µM (inactive) in the experiment with SF-268; 23.8 µM (inactive) in the experiment with SK-MEL-2; 37 µM in the experiment with HCT-15; 41.7 µM (inactive) in the experiment with K562; 34.2 µM (inactive) in the experiment with U-251. The GI50 in the experiment with RXF 393 was 31.8 µM (inactive); in the experiment on ACHN it was 27.2 µM (inactive); with SNB-19, 47.3 µM (inactive); with OVCAR-3, 22.9 µM (inactive); with SF-295, 39.1 µM (inactive); in the experiment on HOP-62, 40.9 µM (inactive). In addition, the values for the GI50 with PC-3, in the experiment on IGROV-1 and in the experiment with TK-10 were 31 µM (inactive), 44.3 µM (inactive) and 38.3 µM (inactive), respectively.

With `COc1ccc(-c2nc(-c3cnccn3)n(Cc3ccccc3)n2)cc1`, the GI50 is > 100 µM (inactive) in the experiment with MCF7; > 100 µM (inactive) in the experiment on SF-268; above 100 µM in the experiment with HCT-15; > 100 µM (inactive) in the experiment with HCC 2998; > 100 µM (inactive) in the experiment with K562; > 100 µM (inactive) with U-251. Moreover, the GI50 in the experiment with RXF 393, in the experiment with SNB-19, in the experiment on OVCAR-3, with SF-295, with HOP-62 and with PC-3 was > 100 µM (inactive) throughout. Moreover, in the experiment with IGROV-1, the GI50 was > 100 µM (inactive).

For the compound `CC(NC(=O)C(NC(=O)OC(C)(C)C)C(C)C)C(=O)N1CCCC1C(=O)NCC(=O)NC(C(=O)NCC(=O)O)C(C)C` (stereo unspecified) (Boc-VAPGVG-OH; configuration not given here), the GI50 is > 100 µM (inactive) with MCF7; > 100 µM (inactive) in the experiment with SF-268; > 100 µM (inactive) in the experiment with SK-MEL-2; above 100 µM in the experiment with HCT-15; 77.3 µM (inactive) with HCC 2998; > 100 µM (inactive) in the experiment with K562. Moreover, the GI50 with U-251, in the experiment on ACHN, with SNB-19, in the experiment with OVCAR-3, in the experiment on SF-295 and in the experiment with HOP-62 was > 100 µM (inactive) in each case. Also, the GI50 in the experiment with PC-3, in the experiment with IGROV-1 and in the experiment with TK-10 was > 100 µM (inactive) each time.

Take `CCOc1cc(C=O)ccc1O` [ETHYL VANILLIN]: the GI50 was > 100 µM (inactive) in the experiment on MCF7; > 100 µM (inactive) in the experiment with SF-268; > 100 µM (inactive) in the experiment on SK-MEL-2; above 100 µM in the experiment on HCT-15; > 100 µM (inactive) in the experiment on HCC 2998; > 100 µM (inactive) in the experiment on K562. The GI50 in the experiment on U-251, with ACHN, with SNB-19, in the experiment with OVCAR-3, in the experiment with SF-295 and with HOP-62 was > 100 µM (inactive) in each case. In addition, the GI50 with PC-3, in the experiment with IGROV-1 and in the experiment on TK-10 was > 100 µM (inactive) throughout.
